From EP0383759B1 (Discovery Therapeutics, Inc., priority 1987, dated 1988) come the findings set out here.

Assay [1] concerns heart rate and blood pressure. Put plainly: in vivo heart rate and blood pressure in anesthetized rats after adenosine or NECA. The settings on record: urethan-anesthetized rats, intravenous. The source says:
Drug injections were made intravenously through a jugular cannula.

The target in assay [2] is T1, A2 receptors of rat pheochromocytoma (PC12) cells (Rattus norvegicus, UniProt P30543).
T1 construct: NECA-induced stimulation of adenylate cyclase activity of the PC12 cells membranes; endogenous in cells; host or cells: rat pheochromocytoma PC12 cell membranes
Put plainly: antagonism of NECA-induced stimulation of adenylate cyclase activity of PC12 cell membranes. The format is biochemical. The settings on record: NECA-stimulated adenylate cyclase, result in words. The method, then: (§1) Human platelet, rat pheochromocytoma (PC12) cell, rat fat cell and rat cerebral cortex membranes were prepared as described (4,5,6). Adenylate cyclase activity and binding of [^3H]PIA to cerebral cortex membranes were determined essentially as described (4,5,6).
(§2) KB values for the compounds were determined as described (4). […] EC50 and IC50 values for the agonists were obtained from the concentration-response curves by linear regression after logit-log transformation. KB values of the antagonists were calculated using the Schild equation KB = C/(CR-1), where C denotes the concentration of the competitor and CR the ratio of the EC50 and IC50 values in the presence and absence, respectively, of the competitor. IC50 of the compounds for inhibition of [^3H]PIA binding to cerebral cortex membranes were transformed into Ki values as described (6).

For assay [3], the target named is T2, fat cell A1 receptor (Rattus norvegicus, UniProt P25099).
T2 construct: from tissue; host or cells: rat fat cell membranes
T2 sequence (P25099 1-326): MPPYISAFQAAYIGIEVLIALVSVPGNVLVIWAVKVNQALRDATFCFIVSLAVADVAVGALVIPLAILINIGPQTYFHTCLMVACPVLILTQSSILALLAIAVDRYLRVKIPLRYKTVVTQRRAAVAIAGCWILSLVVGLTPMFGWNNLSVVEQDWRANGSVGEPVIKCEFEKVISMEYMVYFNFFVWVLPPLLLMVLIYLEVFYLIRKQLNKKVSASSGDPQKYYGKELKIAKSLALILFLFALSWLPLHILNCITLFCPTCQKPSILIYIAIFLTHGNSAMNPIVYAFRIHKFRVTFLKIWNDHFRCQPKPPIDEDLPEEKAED
Nature of the assay: antagonism of R-PIA-induced inhibition of isoproterenol-stimulated adenylate cyclase activity in fat cell membranes. The format is biochemical. The settings on record: result in words. How it is done:
as §1, §2

The target of assay [4] is T3, A1 receptors (Rattus norvegicus, UniProt P25099).
T3 construct: from tissue; host or cells: rat cerebral cortex membranes
T3 sequence (P25099 1-326): T2 sequence (P25099 1-326)
Put plainly: inhibition of [^3H]PIA binding to rat cerebral cortex membranes. The settings on record: result in words. How it is done: as §1, §2

Assay [5] deals with T4, A2 receptors of platelets (Homo sapiens, UniProt P29274).
T4 construct: NECA-induced stimulation of adenylate cyclase activity of human platelet membranes; from tissue; host or cells: human platelet membranes
Nature of the assay: antagonism of NECA-induced stimulation of adenylate cyclase activity of human platelet membranes. The settings on record: for antagonist potency at the platelet A2 receptor: NECA-induced stimulation of adenylate cyclase, human platelet membranes, result in words. The format is biochemical. The method, then:
as §1, §2
In these cells, A2 receptor-mediated stimulation of adenylate cyclase results in an inhibition of aggregation (5,7).

The target in assay [6] is T5, A1 or A2 receptors (Rattus norvegicus, UniProt P25099).
T5 sequence (P25099 1-326): T2 sequence (P25099 1-326)
Put plainly: comparison of activity across the A1 and A2 adenosine receptor systems (discussion). The settings on record: test system not specified. The format is biochemical. The method, then:
as §1, §2

Assay [7] has as its system A2-adenosine receptors. Put plainly: antagonism of adenosine agonists' decrease in contractile tone of guinea pig taenia caecum. The class given is cell-based. The settings on record: result in words. The method, then:
The tissues were suspended in a 20 ml organ bath containing de Jalon's solution that was gassed with 95% O2 + 5% CO2 and maintained at 31°C. The resting tension was 1.5 g. The contractile response was measured isotonically.
(§3) The ability of the compounds to antagonize the effects of agonists was analyzed using modified Schild plots.

Assay [8] has as its target T6, A1 adenosine receptor (Cavia porcellus, UniProt P47745).
T6 construct: The left atria from male guinea pigs were isolated; from tissue; host or cells: isolated guinea pig left atrium
T6 sequence (P47745 1-326): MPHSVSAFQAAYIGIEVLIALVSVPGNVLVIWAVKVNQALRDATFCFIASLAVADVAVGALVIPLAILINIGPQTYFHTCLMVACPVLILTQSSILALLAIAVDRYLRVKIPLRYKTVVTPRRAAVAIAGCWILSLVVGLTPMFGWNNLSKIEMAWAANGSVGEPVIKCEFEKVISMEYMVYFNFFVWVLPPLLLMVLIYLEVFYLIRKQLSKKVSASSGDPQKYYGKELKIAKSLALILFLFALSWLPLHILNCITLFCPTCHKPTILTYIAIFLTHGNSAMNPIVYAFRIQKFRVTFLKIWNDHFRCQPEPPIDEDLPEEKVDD
Nature of the assay: antagonism of adenosine agonists' reduction in force of contraction of guinea pig atrium. The class given is cell-based. The settings on record: for antagonism at adenosine receptors in the atria / basal force of contraction in the atria: guinea pig atria; for antagonism at adenosine receptors in the atria: result in words. The method, then: The left atria from male guinea pigs were isolated, suspended between two punctate electrodes, and placed in a 20 ml organ bath that contained Krebs-Hensileit solution that was continuously gassed with 95% O2 + 5% CO2 and maintained at 31°C. The resting tension was one gram. Theatria were stimulated electrically at 1 hz, 1 ms duration pulses at supramaximal voltage. The force of contraction was recorded isometrically.
as §3

Setting [9] is: affinity constants, guinea pig left atria, modified Schild plots.

T4 sequence (P29274 whole entry): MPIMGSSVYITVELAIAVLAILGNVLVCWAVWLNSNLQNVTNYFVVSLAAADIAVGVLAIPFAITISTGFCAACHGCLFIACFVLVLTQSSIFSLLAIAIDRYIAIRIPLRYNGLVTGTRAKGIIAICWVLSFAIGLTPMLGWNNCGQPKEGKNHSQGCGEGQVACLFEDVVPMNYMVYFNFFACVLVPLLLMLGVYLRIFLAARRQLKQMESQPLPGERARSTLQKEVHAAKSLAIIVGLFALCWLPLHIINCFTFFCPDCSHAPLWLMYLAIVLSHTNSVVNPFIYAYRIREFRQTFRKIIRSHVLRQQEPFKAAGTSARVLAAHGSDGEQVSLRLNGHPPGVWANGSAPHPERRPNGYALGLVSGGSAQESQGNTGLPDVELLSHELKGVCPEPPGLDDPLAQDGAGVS
T1 sequence (P30543 whole entry): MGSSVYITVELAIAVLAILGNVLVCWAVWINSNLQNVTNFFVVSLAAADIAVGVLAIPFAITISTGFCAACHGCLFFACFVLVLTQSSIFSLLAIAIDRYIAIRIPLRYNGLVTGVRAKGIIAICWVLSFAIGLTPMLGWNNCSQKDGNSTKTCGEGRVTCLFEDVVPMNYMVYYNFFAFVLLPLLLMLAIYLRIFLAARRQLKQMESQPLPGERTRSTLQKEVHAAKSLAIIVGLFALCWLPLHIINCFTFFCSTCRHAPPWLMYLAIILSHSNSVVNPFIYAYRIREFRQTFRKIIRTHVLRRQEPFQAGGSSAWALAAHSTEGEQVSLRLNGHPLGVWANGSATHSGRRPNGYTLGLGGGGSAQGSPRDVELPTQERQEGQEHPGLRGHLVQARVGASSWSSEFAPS

As for `Cn1cnc2c(N[C@@H]3C[C@@H]4CC[C@H]3C4)ncnc21` (relative stereo) [N^6-(endonorbornyl)-9-methyladenine], in assay [1], the “effects of subsequently administered adenosine on blood pressure, heart rate and P-R interval” value is listed as “attenuated”; the “heart block caused by adenosine at high doses” value was “substantially reduced”.
With `Nc1ncnc2nc[nH]c12` [Example 1, Adenine, reference compound], the “antagonist potency at the A2 receptor of PC12 cells” value (“antagonist potency … of PC12 cells” below) in assay [2] is given as “very weak antagonist”. In assay [3], the “antagonistic potency at the fat cell A1 receptor” value (from here on “antagonistic potency”) is listed as “does not affect”. The “Ki-values for inhibition of [^3H]PIA binding” value (shortened to “Ki-values for inhibition”) in assay [4] is “low potency”. Further, the “antagonist potency at the platelet A2 receptor” value in assay [5] is on record as “very weak antagonist”. Further, the “basal adenylate cyclase activity” value in assay [5] (human platelets, data not shown) is given as “does not affect”.
In the case of `Cn1cnc2c(N)ncnc21` [Example 2, 9-methyladenine, reference compound], the “antagonist potency … of PC12 cells” value in assay [2] was “equally potent at A2 receptors of human platelets and rat PC12 cells”. For the same compound, the “antagonistic potency” value in assay [3] is on record as “antagonizes the effect of R-PIA”. Also, in assay [4], the “Ki-values for inhibition” value is “equally potent at A1 receptors of fat cells and cerebral cortex”. The “antagonist potency at the platelet A2 receptor” value in assay [5] is on record as “more potent than the adenine itself”.
On to `Cn1cnc2c(NC3CCC3)ncnc21` [Example 3, N^6-Cyclobutyl-9-MA], for which the “activity at A1 receptors” value in assay [6] is reported as “the most potent of N^6-substituted 9-methyladenines at A1 receptors”. The “antagonistic potency” value in assay [3] is on record as “more potent than the parent compound”. In addition, the “antagonist potency at the platelet A2 receptor” value in assay [5] is listed as “more potent than 9-methyladenine itself”.
For orientation: Kb means the equilibrium dissociation constant of an antagonist, usually derived from a functional assay. A low value points to a more potent antagonist. In the case of `Cn1cnc2c(NC3CCCC3)ncnc21` [Example 4, N^6-cyclopentyl-9-methyladenine], the “activity at A1 receptors” value in assay [6] was “the most potent of N^6-substituted 9-methyladenines at A1 receptors”. Moreover, the “antagonist potency … of PC12 cells” value in assay [2] is “more potent at the platelet A2 receptor than at the PC12 A2 receptor”. Also, the “antagonistic potency” value in assay [3] is recorded as “more potent than the parent compound”. For the same compound, the “antagonism of the effects of adenosine agonists in relaxing the taenia caecum” value (shortened to “antagonism … in relaxing the taenia caecum”) in assay [7] was “did not competitively antagonize”. The Kb in assay [8] (setting [9]) was 676 nM. In addition, the “antagonism at adenosine receptors in the atria” value (from here on “antagonism … in the atria”) in assay [8] was “competitive antagonists”. Besides, the “Ki-values for inhibition” value in assay [4] is reported as “more potent than the N^6-methylcyclopentyl analog”. The “antagonist potency at the platelet A2 receptor” value in assay [5] was “more potent than 9-methyladenine itself”.
On to `Cn1cnc2c(NC3(C)CCCC3)ncnc21` [Example 5, N^6-1-methylcyclopentyl-9-methyladenine], for which the “activity at A1 receptors” value in assay [6] is listed as “reduces activity at A1 receptors”. For the same compound, in assay [2], the “antagonist potency … of PC12 cells” value was “reduces potency”. Moreover, the “antagonistic potency” value in assay [3] is listed as “less potent than the N^6-cyclopentyl analog”. The “antagonist potency at the platelet A2 receptor” value in assay [5] is recorded as “less potent than the parent cyclopentyl analog”.
With `Cn1cnc2c(NC3CCCCC3)ncnc21` [Example 6, N^6-Cyclohexyl-9-MA], the “activity at A1 receptors” value in assay [6] was “the most potent of N^6-substituted 9-methyladenines at A1 receptors”. Besides, in assay [3], the “antagonistic potency” value is listed as “more potent than the parent compound”. The “antagonist potency at the platelet A2 receptor” value in assay [5] is listed as “more potent than 9-methyladenine itself”.
Regarding `CNc1ncnc2c1ncn2C` [Example 7, N^6-Methyl-9-MA], the “antagonistic potency” value in assay [3] is given as “less potent than 9-methyladenine”. In addition, the “antagonist potency at the platelet A2 receptor” value in assay [5] is reported as “much less potent than 9-methyladenine”.
As for `CCC(CC)Nc1ncnc2c1ncn2C` [Example 8, N^6-3-pentyl-9-methyladenine], the “antagonist potency … of PC12 cells” value in assay [2] was “more potent at the platelet A2 receptor than at the PC12 A2 receptor”. Moreover, the “antagonistic potency” value in assay [3] is “more potent than the parent compound”. Moreover, the “antagonism … in relaxing the taenia caecum” value in assay [7] is listed as “did not competitively antagonize”. The Kb in assay [8] (setting [9]) was 3980 nM. In addition, in assay [8], the “basal force of contraction in the atria” value was “produced increases” and the “antagonism … in the atria” value was “competitive antagonists”. Also, in assay [5], the “antagonist potency at the platelet A2 receptor” value was “more potent”.
For the compound `Cn1c(=O)c2[nH]c(-c3ccccc3)nc2n(C)c1=O` [Example 8-PT, 8-phenyltheophylline, reference compound], the “antagonism … in relaxing the taenia caecum” value in assay [7] is “did antagonize the effects of agonists at low concentrations”.
With `Cn1cnc2c(Nc3ccccc3)ncnc21` [Example 9, N^6-Phenyl-9-MA], in assay [2], the “antagonist potency … of PC12 cells” value was “more potent at the platelet A2 receptor than at the PC12 A2 receptor”. Further, in assay [3], the “antagonistic potency” value was “more potent than 9-methyladenine”. Further, the “antagonist potency at the platelet A2 receptor” value in assay [5] is “equipotent to 9-methyladenine”.
As for `Cn1cnc2c(Nc3ccccc3F)ncnc21` [Example 10, N^6-2-Fluorophenyl-9-MA], in assay [3], the “antagonistic potency” value is listed as “more potent than 9-methyladenine”. Besides, the “antagonist potency at the platelet A2 receptor” value in assay [5] is “increases potency”.
In the case of `Cn1cnc2c(NCc3ccccc3)ncnc21` [Example 11, N^6-benzyl-9-methyladenine], the “activity at A1 receptors” value in assay [6] is listed as “modest activity”. Also, in assay [5], the “antagonist potency at the platelet A2 receptor” value is given as “less potent than 9-methyladenine”.
For the compound `Cn1cnc2c(NCCc3ccccc3)ncnc21` [Example 12, N^6-2-Phenethyl-9-MA], the “antagonistic potency” value in assay [3] is on record as “much less potent”. Also, the “Ki-values for inhibition” value in assay [4] is listed as “very weak antagonists”. Also, in assay [5], the “antagonist potency at the platelet A2 receptor” value is “less potent than 9-methyladenine”.
Turning to `COc1cc(CCNc2ncnc3c2ncn3C)cc(OC)c1OC` [Example 13, N^6-2-(3,4,5-trimethoxyphenylethyl)-9-methyladenine], the “Ki-values for inhibition” value in assay [4] is “very weak antagonists”. In addition, the “antagonist potency at the platelet A2 receptor” value in assay [5] was “as potent as 9-methyladenine”.
For the compound `Cn1cnc2c(NCCc3cccnc3)ncnc21` [Example 14, N^6-2-(3-pyridylethyl)-9-methyladenine], the “antagonist potency at the platelet A2 receptor” value in assay [5] is on record as “less potent than 9-methyladenine”.
On the same count and under the same terms, to `Cn1cnc2c(NCCc3ccsc3)ncnc21` [Example 15, N^6-2-(3-thienylethyl)-9-methyladenine] belongs “somewhat more potent”.
In the case of `C[C@H](Cc1ccccc1)Nc1ncnc2c1ncn2C` [Example 16, N^6-R-1-Phenyl-2-propyl-9-MA], in assay [3], the “antagonistic potency” value is “more potent than the parent compound”. Further, the “Ki-values for inhibition” value in assay [4] was “more potent than the S-isomer”. Further, the “antagonist potency at the platelet A2 receptor” value in assay [5] is “more potent than the S-isomer”.
With `C[C@@H](Cc1ccccc1)Nc1ncnc2c1ncn2C` [Example 17, N^6-S-1-Phenyl-2-propyl-9-MA], in assay [3], the “antagonistic potency” value is on record as “more potent than the parent compound”.
Same read-out and setting: to `Cn1cnc2c(NCCc3ccsc3)ncnc21` [N^6-2-(3-thienylethyl)-9-methyladenine] belongs “more potent than 9-methyladenine itself”.
Broadly, the pKB is the KB on a negative log10 scale, so that one unit is a factor of ten. “N^6-4-(-2-thienyl) -3-butyl) -9-MA [Example 23]” returned a pKB in assay [8] (setting [9]) of 5.36 ± 0.1. Also, in assay [8], the “basal force of contraction in the atria” value is “produced increases” and the “antagonism … in the atria” value was “competitive antagonists”.
